Common to all, as to assay type: cell-based, human
The subject of assay [1] is HT-29 cells. In words: XTT cell proliferation assay, HT-29. The settings on record: HT-29, 72 h, 1-50 μM. As for the experimental part: (§1) Human PDAC (AsPC-1, BxPC-3, Panc-1 scr, Panc-1 p53-R273H knock-out (KO) hTERT-HPNE), breast (MCF-7), lung (A549), and colon (HT-29) cancer cell lines were purchased from the American Type Culture Collection (ATCC). The MCF-7, A549, Panc-1 scr, Panc-1 p53 KO and HT-29 cell lines were grown in Dulbecco's Modified Eagle Medium (DMEM; Biological Industries, Beit HaEmek (BI), Israel), and the BxPC-3 and AsPC-1 cell lines were cultured in Roswell Park Memorial Institute-1640 (RPMI-1640; BI, Israel) medium. All media was supplemented with 10% fetal bovine serum (FBS), 200 μM L-glutamine (BI), and 1% penicillin-streptomycin (BI). Cells were cultured at 37° C. in a 5% CO2 humidified incubator.
(§2) Eravacycline dihydrochloride (MedChem Express (MCE)) was dissolved in […] (DDW). Tigecycline (MCE) and omadacycline (MCE) were dissolved in dimethyl sulphoxide (DMSO). All drugs were prepared as 100 mM stock solutions. All cell lines were treated with DMSO as a control (less than 0.1%) or tigecycline, omadacycline, or eravacycline (at the indicated concentrations) for 72 hours. Cell viability and proliferation were determined using the XTT Cell Proliferation Assay Kit (Promega).
(§3) The XTT Cell Proliferation Assay Kit was used to determine cell viability and proliferation. Cells were seeded in 96-well plates at a density of 4,000 cells per well and allowed to attach overnight in a 5% CO2 incubator at 37° C. […] After shaking the plate gently to distribute the dye in the wells, the absorbance was measured with a spectrophotometer (Bio-RadiMark Microplate Absorbance reader) at a wavelength of 450 nm and a reference wavelength of 655 nm.
(§4) To evaluate the half maximal inhibitory concentration (IC50) of tetracycline derivatives on five different cell lines (MCF-7, A549, HT-29, BxPC-3, and AsPC-1), the cells were seeded and allowed to attach overnight. […] Inhibition of cell proliferation was determined using the XTT Cell Proliferation Assay Kit. […]

Assay [2] has as its system MCF-7 cells. In words: XTT cell proliferation assay, MCF-7. The settings on record: MCF-7, 72 h, 1-50 μM. As for the experimental part: as §1, §2, §3, §4
The test system of assay [3] is BxPC-3 cells. In words: XTT cell proliferation assay, BxPC-3. As for the experimental part:
as §1, §2
(§5) The XTT Cell Proliferation Assay Kit was used to determine cell viability and proliferation. Cells were seeded in 96-well plates at a density of 4,000 cells per well and allowed to attach overnight in a 5% CO2 incubator at 37° C. After overnight incubation, cells were treated with culture medium or in a medium containing tigecycline, omadacycline, or eravacycline at different concentrations (1, 2, 5, 10, 25, and 50 μM) for the indicated time period. Then, 50 μl XTT reaction solution (0.1 ml activation solution+5 ml XTT reagent solution) was added to each well, and the plate was incubated at 37° C. for two hours. After shaking the plate gently to distribute the dye in the wells, the absorbance was measured with a spectrophotometer (Bio-RadiMark Microplate Absorbance reader) at a wavelength of 450 nm and a reference wavelength of 655 nm.
(§6) To evaluate the half maximal inhibitory concentration (IC50) of tetracycline derivatives on five different cell lines (MCF-7, A549, HT-29, BxPC-3, and AsPC-1), the cells were seeded and allowed to attach overnight. All cells were washed with phosphate buffered saline (PBS) and then cultured in fresh media containing the drugs tigecycline, omadacycline, or eravacycline at an increasing concentration (0-50 μM) for 72 h. Inhibition of cell proliferation was determined using the XTT Cell Proliferation Assay Kit.
(§7) To investigate the effect of tetracycline derivatives on cell proliferation in human breast, lung, colon, and PDAC cells, the inventors treated all cell lines (MCF-7, A549, HT-29, BxPC-3, and AsPC-1) with different concentrations of tigecycline, omadacycline, and eravacycline (1, 2, 5, 10, 25, and 50 μM), with medium used as a control, for 72 h. Then, an XTT assay was performed to determine the growth inhibition rate.

The subject of assay [4] is A549 cells. The experiment in a line: XTT cell proliferation assay, A549. The settings on record: A549, 72 h, 1-50 μM. The method, then:
as §1, §2, §3, §4

Assay [5] relates to AsPC-1 cells. The experiment in a line: XTT cell proliferation assay, AsPC-1. The method, then: as §1, §2, §5, §6, §7
Assay [6] has as its system POLK. The experiment in a line: Western blot of POLK protein expression in BxPC-3 cells. The settings on record: BxPC-3, 72 h, increasing concentrations.
Assay [7] relates to p53 (mutated in BxPC-3). In words: Western blot of p53 protein expression in BxPC-3 cells. Particulars: BxPC-3, 72 h, increasing concentrations.

The values below come from patent US20250325565A1, “ERAVACYCLINE FOR TREATING CANCER” (B. G. NEGEV TECHNOLOGIES AND APPLICATIONS LTD., priority 2022, published 2025).

Take `CN(C)c1cc(NC(=O)CNC(C)(C)C)c(O)c2c1C[C@H]1C[C@H]3[C@H](N(C)C)C(O)=C(C(N)=O)C(=O)[C@@]3(O)C(O)=C1C2=O` [tigecycline]: the “effect on cell survival / proliferation (in words)” value in assay [1] and in assay [2] was “no significant effect” in each case. The “suppression of proliferation, up to” value in assay [3] (BxPC-3, 72 h, concentration-dependent, 1-50 μM) is listed as 60-65%; in assay [4] (concentration-dependent), 60-65%; in assay [5] (AsPC-1, 72 h, concentration-dependent, 1-50 μM) it was 60-65%. The cytotoxicity at 25 µM in assay [3] (Homo sapiens, BXPC-3, 72 h, BxPC-3, 25 μM, 72 h, read-out: decrease in cell growth / viability) was found to be 60%. Moreover, the IC50 is 9.9 µM in assay [3] (Homo sapiens, BXPC-3, 72 h, read-out: IC50, inhibition of cell proliferation) and 4.58 µM in assay [5] (Homo sapiens, ASPC1, 72 h, read-out: IC50, inhibition of cell proliferation).
On to `COc1cccc2c1C(=O)c1c(O)c3c(c(O)c1C2=O)C[C@@](O)(C(=O)CO)C[C@@H]3O[C@H]1C[C@H](N)[C@H](O)[C@H](C)O1` [doxorubicin], for which the “decrease in cell growth” value in assay [3] (BxPC-3, 1 μM, 72 h) is 67%; in assay [3] (BxPC-3, 10 μM, 72 h), 94%. In addition, in assay [6], the “POLK protein expression vs control” value is reported as “Neither gemcitabine nor doxorubicin reduced”. Also, the “p53 protein expression vs control” value in assay [7] was “Neither gemcitabine nor doxorubicin reduced”.
As to `Nc1ccn([C@@H]2O[C@H](CO)[C@@H](O)C2(F)F)c(=O)n1` [gemcitabine], the “decrease in cell growth” value in assay [3] (BxPC-3, 1 μM, 72 h) came out at 77%; in assay [3] (BxPC-3, 10 μM, 72 h), 80%. Besides, in assay [6], the “POLK protein expression vs control” value was “Neither gemcitabine nor doxorubicin reduced”. For the same molecule, in assay [7], the “p53 protein expression vs control” value is on record as “Neither gemcitabine nor doxorubicin reduced”.
Regarding `CN(C)c1cc(CNCC(C)(C)C)c(O)c2c1C[C@H]1C[C@H]3[C@H](N(C)C)C(O)=C(C(N)=O)C(=O)[C@@]3(O)C(O)=C1C2=O` [omadacycline], the “effect on cell survival / proliferation (in words)” value in assay [1], in assay [2] and in assay [4] was “no significant effect on cell survival” throughout. Further, the “effect on cell survival / viability (in words)” value was “no significant effect on cell survival” in assay [3] (BxPC-3, 72 h, 1-50 μM) and “no significant effect on cell survival” in assay [5] (AsPC-1, 72 h, 1-50 μM).
